Values of other authors in US20110118355A1, “TREATMENT OF MIGRAINE HEADACHES USING ANTIESTROGENS” (priority 2007, published 2011).

Conditions: one person, no aura, headache accompanied by fever; Letter to the Editor, Headache 32:315 (1992)

CCN(CC)CCOc1ccc(C(=C(Cl)c2ccccc2)c2ccccc2)cc1 [clomiphene]
clinical benefit in headaches diagnosed as common migraine: benefited
